Assay [1] is described as follows: P. falciparum Dd2 growth inhibitors, dose response, SYBR Green, cherry-picked samples (AID 1159567). The class given is functional, cell-based.
Assay [2] is described as follows: growth inhibition of PfATP4-mutant resistant parasites – NITD609-resistant line, SYBR Green, dry powder, dose response (AID 1159571).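 Also: parasites synchronized at ring stage by sorbitol before testing.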 It counts as functional, cell-based.
The nature of assay [3]: Dd2 malaria parasite growth inhibition potency – SYBR Green, dry powder samples, dose response (AID 1159566).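 Also: potency for growth inhibition with lower SYBR green DNA signal.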 It counts as functional, cell-based.
A short description of assay [4]: growth inhibition of yeast DHODH-expressing 3D7 parasites – SYBR Green, dry powder samples, dose response (AID 1159570).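 Also: parasite growth measured after 72 hours of compound exposure.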 The class given is functional, cell-based.
In assay [5] the test system is P388. As to the kind of experiment: cells. Conditions: Mus musculus. The class given is functional.
In assay [6] the test system is P388/ADR. As to the kind of experiment: cells. It counts as functional. Conditions: Mus musculus.
In assay [7] the test system is SN12K1. As to the kind of experiment: cells. The class given is functional. Conditions: Homo sapiens.
Assay [8] concerns H9c2. The assay can be described thus: cells. It counts as functional, cell-based. The following applies: Rattus norvegicus, H9c2, Myocardium.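 Also: confirmatory concentration-response retest of ultra-high-throughput screening hits for modulation of myocardial damage; cell death induced by hydrogen peroxide oxidative stress; compound pretreatment for 60 min then peroxide exposure for 2 h; potency is for protecting the cells against peroxide damage rather than for killing them.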
For assay [9], the target named is T1, Heat shock factor protein 1 (Mus musculus, UniProt P38532).
T1 sequence (P38532 whole entry): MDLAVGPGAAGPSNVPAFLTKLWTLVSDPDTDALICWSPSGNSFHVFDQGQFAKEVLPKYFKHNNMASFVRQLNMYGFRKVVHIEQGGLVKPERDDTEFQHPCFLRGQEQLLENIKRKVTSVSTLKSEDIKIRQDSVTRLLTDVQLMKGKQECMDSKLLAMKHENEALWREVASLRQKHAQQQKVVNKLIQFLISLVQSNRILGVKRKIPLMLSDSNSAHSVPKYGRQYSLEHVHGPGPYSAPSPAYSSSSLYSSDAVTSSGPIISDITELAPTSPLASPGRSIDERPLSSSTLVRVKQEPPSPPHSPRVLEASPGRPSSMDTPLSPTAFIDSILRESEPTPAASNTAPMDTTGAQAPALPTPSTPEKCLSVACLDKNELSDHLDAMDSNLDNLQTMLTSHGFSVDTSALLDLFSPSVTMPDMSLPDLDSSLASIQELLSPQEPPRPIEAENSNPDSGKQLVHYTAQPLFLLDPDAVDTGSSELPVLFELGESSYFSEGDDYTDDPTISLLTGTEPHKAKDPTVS
As to the kind of experiment: enhancement of HSF1-driven luciferase signal – cell-based, NIH3T3, luminescence, dose retest, confirmation (AID 435004).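 Also: stress induced by proteasome inhibitor MG132 added 30 min after compound; luciferase reporter driven by HSF1 response element in NIH3T3 cells; actives raise luminescence as potentiators of the MG132 stress response.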 It counts as functional.

Assay [10] can be described thus: viability of uninfected HEp-2 cells – cell-based, HTS, cytotoxicity control for RSV inhibitor project, dose response (AID 2410). The following applies: human respiratory syncytial virus. It counts as functional.

The record followed here is ChEMBL document CHEMBL1201862, “PubChem BioAssay data set” (2004).

In general, AC50 refers to the concentration giving half of the maximal activity seen. As usually defined, the GI50 is the concentration that inhibits growth by half. What is called IC50 is the concentration at which inhibition is half-maximal. One may read the EC50 as the concentration needed to bring the measured effect to its halfway point. One may read the CC50 as the concentration giving 50% cytotoxicity.

Molecules are shown by their SMILES. Calls of active or inactive are those of the source. Where only a bound is given, the exact number is not on record here.

Consider `CCCC#Cc1ccc2c(c1)O[C@H](CN(C)C(=O)Nc1ccc(OC)cc1)[C@H](C)CN([C@H](C)CO)S2(=O)=O`, for which the AC50 in assay [1] is 1.94 µM (active); in assay [2], 1.45 µM (active); in assay [3] it was 1.82 µM (active); in assay [4] it was 1.37 µM (active).
On the same counts, the results for `CC(C)NC(=O)N1[C@@H](CO)[C@@H](c2ccccc2)C12CN(Cc1ccc(F)cc1)C2` are 3.25 µM (active), 2.17 µM (active), 1.95 µM (active) and 4 µM (active).
Take `O=C(Nc1ccc(C2=NCCN2)cc1)c1cncc(C(=O)Nc2ccc(C3=NCCN3)cc2)c1`: the GI50 is 24.2 µM (inactive) in assay [5], > 100 µM (inactive) in assay [6] and > 100 µM (inactive) in [7].
As for `O=C(/C=C/c1ccc(Cl)c([N+](=O)[O-])c1)Nc1cccnc1`, in assay [8], the IC50 was > 79 µM (inactive).
With `O=C(O)CCCCCCCCC(=O)O` [SEBACIC ACID], the GI50 in assay [5] was 316 µM (inactive); in assay [6], > 500 µM (inactive); in assay [7] it was > 500 µM (inactive).
On to `Cc1cc(C)n2nc(C(=O)N/N=C/c3c4ccccc4cc4ccccc34)nc2n1`, for which the IC50 in [8] is > 79 µM (inactive). Further, the EC50 in assay [9] is > 260 µM (inactive).
Consider `O=C(CN1CCN(Cc2ccccc2)CC1)Nc1ccc([N+](=O)[O-])cc1C(=O)Nc1ccccc1F`, for which the IC50 in assay [8] is > 79 µM (inactive).
As for `CCC1CN2CCC1CC2` (configuration not stated), the GI50 was 80.4 µM (inactive) in assay [5], > 100 µM (inactive) in assay [6] and > 100 µM (inactive) in assay [7].
Regarding `COc1ccccc1S(=O)(=O)N(C)C[C@H]1OCc2ccccc2-c2c(n(C)c3ccccc23)C(=O)N([C@@H](C)CO)C[C@@H]1C`, the AC50 in assay [1] is 2.1 µM (active); in assay [2], 1.02 µM (active); in assay [3], 1.09 µM (active); in [4], 2.03 µM (active).
For `c1cncc(-c2nc(NCC3COc4ccccc4O3)c3ccccc3n2)c1` (configuration not stated), in [8], the IC50 was > 79 µM (inactive). In addition, in assay [10], the CC50 was 10.2 µM (active).
`C[C@@H]1CN([C@@H](C)CO)C(=O)c2cccc(NC(=O)c3nc4ccccc4s3)c2O[C@H]1CN(C)C(=O)Nc1ccc2c(c1)OCO2`: the AC50 in assay [1] was 2.35 µM (active); in assay [2], 1.18 µM (active); in [3] it was 1.37 µM (active); in assay [4] it was 0.985 µM (active).
`COc1ccc(C(=O)O/N=C(/c2ccccc2)c2ccncc2)cc1OC`: in assay [8], the IC50 is 6.72 µM (active).
Take `C[C@H]1[C@@H]2C[C@@H]3O[C@@]34[C@H]3CCC5Cc6nc7c(nc6C[C@@]5(C)[C@]3(O)CC(=O)[C@@]24CO[C@]12OC(C)(C)C[C@@H]2O)CC1CC[C@@H]2C3=C[C@H]4O[C@@]5(OC(C)(CO)C[C@@H]5O)[C@H](C)[C@@]4(O)[C@]3(C)[C@@H](O)CC2[C@]1(C)C7` (some centres not stated): the GI50 was 0.0017 µM (active) in assay [5], 0.0718 µM (active) in assay [6] and 0.00221 µM (active) in [7].
As for `COC(=O)[C@@H]1c2cc3c(c(O)c2[C@@H](OC)C[C@@]1(C)O)C(=O)c1c(O)cc2c(c1C3=O)OC1O[C@@]2(C)[C@H](O)[C@@H](N(C)C)[C@@H]1O`, the GI50 in assay [5] is 0.092 µM (active); in assay [6] it was 1.29 µM (inactive); in [7], 0.352 µM (active).
For `COc1ccc(Cl)cc1NC(=O)CCS(=O)(=O)c1cc2c(cc1C)NC(=O)CO2`, the IC50 in assay [8] was > 79 µM (inactive).
For `Cn1c2ccccc2c(=O)c2c(O)cc3c(c21)C=CC(C)(C)O3` [NORACRONYCINE], the GI50 in assay [5], in [6] and in assay [7] was > 25 µM (inactive) throughout.
